{"source": "patent US11800867B2", "about": "“Methods of repelling biting arthropods, reducing pathogen spread and treating arthropod infestation” (priority 2016, dated 2023)", "assay_type_in_all_cases": "in vivo", "key": {"[1]": {"tested_on": "termites (Reticulitermes flavipes)", "test": "Treated filter paper knockdown (KD) and mortality trial (Example 4)", "settings": "Nootkatone 1% in ethanol on filter paper", "description": "(§1) A laboratory trial was conducted to assess the efficacy of nootkatone applied to filter paper against aphids (Schizaphis gramium), dust mites (Dermatophagoides sp.), termites (Reticulitermes flavipes), deer ticks (Ixodes scapularis), biting midges (Culicoides sp.), fire ants (Solenopsis invicta), and mosquitoes (Aedes aegypti and Culex), in terms of knockdown (KD) and mortality. One concentration (1% in ethanol) of nootkatone was assessed for most species, but three concentrations (0.25%, 0.5%, and 1% in ethanol) were assessed for mosquitoes. A negative control group, consisting of filter paper treated with ethanol, was also assessed for comparison purposes for each species.\n(§2) Test systems were introduced to treated filter paper, allowed to dry, and then introduced into treatment chamber, where treated arthropods were monitored at intervals up to 72 hours. If 100% mortality was obtained prior to 72 hours, the individual study was halted.\nTermites—3 replicates of 10 termites were tested per treatment. One long glass tube with screened ends (to provide ventilation) was used for each test container. Test containers were placed into a larger container to prevent escapes, and were kept in darkness and at high humidity for the duration of the experiment. Filter papers were cut into strips and fitted inside the glass tubes. Two paper strips were pushed end to end to form one continuous strip, leaving a 2 mm gap running the entire length of the tube for viewing termite activity.\n(§3) Readings were discontinued if treated mortality reaches […], or control mortality exceeds 20%."}, "[2]": {"tested_on": "deer ticks (Ixodes scapularis)", "test": "Treated filter paper knockdown (KD) and mortality trial (Example 4)", "settings": "Nootkatone 1% in ethanol on filter paper", "description": "as §1, §2\n(§4) Deer Ticks and Dust mites—5 replicates of 10 ticks or 35 dust mites were tested per treatment. Envelopes made from treated 2.5 inch (6.35 cm) filter paper squares served as the containers. After the ticks or dust mites were placed inside the envelopes, and the openings were sealed using small binder clips.\nas §3"}, "[3]": {"tested_on": "dust mites (Dermatophagoides sp.)", "test": "Treated filter paper knockdown (KD) and mortality trial (Example 4)", "settings": "Nootkatone 1% in ethanol on filter paper", "description": "as §1, §2, §4, §3"}, "[4]": {"tested_on": "cat fleas (Ctenocephalides felis)", "test": "Filter paper choice test of repelling action (Example 6)", "settings": "for Raw data: number of fleas on Treated half of treated arena, per replicate / Raw data: number of fleas on Untreated half of treated arena, per replicate: 0.5% nootkatone in ethanol, Replicates 1-5", "description": "(§5) An in vitro laboratory trial was required to assess the repelling action of nootkatone applied to filter paper against cat fleas (Ctenocephalides felis), deer ticks (Ixodes scapularis), bed bugs (Cimex lectularius), and termites (Reticulitermes flavipes) in a choice test design.\n(§6) The sponsor provided a sample of nootkatone (98%), which was diluted in ethanol to a 0.5% concentration. The treatment was applied to filter paper at a rate of 1 mL for a 9 cm filter paper disc, and a rate of 1.9 mL for a 15 cm filter paper disc. A negative control group, consisting of untreated filter paper, was also assessed for comparison purposes.\nCat fleas: Treated and untreated filter papers were cut in half and fitted into the bottom of a 15 cm clear plastic cylinder. Treated replicates received one half treated and one half untreated filter paper; negative control replicates received only untreated filter paper.\nCat fleas: Cat fleas were introduced to the untreated side of each arena, and their distribution (on or under each paper) was recorded at +1, +4, and +24 hours post-introduction.\n(§7) The number of insects in each location was converted to a percentage, for which the average and standard error were calculated across all five replicates.\n(§8) Percent repellency was calculated with the following formula: % repellency=(1−((t/T)/(c/C)))*100 • Where t=number of insects on treated side of treated arena • T=total number of insects in treated arena • c=average number of insects on right side of untreated arenas • C=average total number of insects in untreated arenas"}, "[5]": {"tested_on": "bed bugs (Cimex lectularius)", "test": "Filter paper choice test of repelling action (Example 6)", "description": "as §5, §6\nBed bugs: Petri dishes (9 cm) were modified by cutting a circular hole in the bottom of a clean petri plate. Fine mesh nylon cloth was fastened to the bottom using adhesive, covering the hole. The petri plate was then inverted, with the screened bottom serving as the top. Treated and untreated filter papers were cut in half and fitted into the new bottom of the test containers. Treated replicates received one half treated and one half untreated filter paper; negative control replicates received only untreated filter paper.\nBed bugs: Bed bugs were placed in the center of each test container and covered with the fine-mesh lid. The containers were kept in darkness at ambient laboratory conditions for 24 hours. At the end of the exposure period, the distribution (on or under each filter paper) of bed bugs was recorded.\nas §7, §8"}, "[6]": {"settings": "0.5% nootkatone in ethanol on filter paper"}, "[7]": {"settings": "0.5% nootkatone in ethanol, 24 Hours post introduction, Replicates 1-5"}}, "note": "Several values for one entry are separate records, joined by “and”; a condition that tells them apart may be missing. Equal values may be shown once."}
{"compound": "C=C(C)[C@@H]1CCC2=CC(=O)C[C@@H](C)[C@]2(C)C1", "note": "[Nootkatone, nootkatone]", "values": [{"measurement": "Time required for greater than 90% killing", "setting": "[1]", "result": 72, "unit": "h"}, {"measurement": "Means Affected", "setting": "[1]; 30 minutes post introduction", "result": 0.0, "unit": "%"}, {"measurement": "Means Dead", "setting": "[1]; 30 minutes post introduction", "result": 0.0, "unit": "%"}, {"measurement": "Means KD", "setting": "[1]; 30 minutes post introduction", "result": 0.0, "unit": "%"}, {"measurement": "Means Affected", "setting": "[1]; 1 hour post introduction", "result": 0.0, "unit": "%"}, {"measurement": "Means Dead", "setting": "[1]; 1 hour post introduction", "result": 0.0, "unit": "%"}, {"measurement": "Means KD", "setting": "[1]; 1 hour post introduction", "result": 0.0, "unit": "%"}, {"measurement": "Means Affected", "setting": "[1]; 4 hours post introduction", "result": 0.0, "unit": "%"}, {"measurement": "Means Dead", "setting": "[1]; 4 hours post introduction", "result": 0.0, "unit": "%"}, {"measurement": "Means KD", "setting": "[1]; 4 hours post introduction", "result": 0.0, "unit": "%"}, {"measurement": "Means Affected", "setting": "[1]; 24 hours post introduction", "result": 83.3, "unit": "%"}, {"measurement": "Means Dead", "setting": "[1]; 24 hours post introduction", "result": 0.0, "unit": "%"}, {"measurement": "Means KD", "setting": "[1]; 24 hours post introduction", "result": 83.3, "unit": "%"}, {"measurement": "Means Affected", "setting": "[1]; 48 hours post introduction", "result": 86.7, "unit": "%"}, {"measurement": "Means Dead", "setting": "[1]; 48 hours post introduction", "result": 86.7, "unit": "%"}, {"measurement": "Means KD", "setting": "[1]; 48 hours post introduction", "result": 0.0, "unit": "%"}, {"measurement": "Means Affected", "setting": "[1]; 72 hours post introduction", "result": 90.0, "unit": "%"}, {"measurement": "Means Dead", "setting": "[1]; 72 hours post introduction", "result": 90, "unit": "%"}, {"measurement": "Means KD", "setting": "[1]; 72 hours post introduction", "result": 0.0, "unit": "%"}, {"measurement": "Time required for greater than 90% killing", "setting": "[2]", "result": 72, "unit": "h"}, {"measurement": "Means Affected", "setting": "[2]; 24 hours post introduction", "result": 100.0, "unit": "%"}, {"measurement": "Means Dead", "setting": "[2]; 24 hours post introduction", "result": 36.0, "unit": "%"}, {"measurement": "Means KD", "setting": "[2]; 24 hours post introduction", "result": 62.0, "unit": "%"}, {"measurement": "Means Affected", "setting": "[2]; 48 hours post introduction", "result": 100.0, "unit": "%"}, {"measurement": "Means Dead", "setting": "[2]; 48 hours post introduction", "result": 82.0, "unit": "%"}, {"measurement": "Means KD", "setting": "[2]; 48 hours post introduction", "result": 16.0, "unit": "%"}, {"measurement": "Means Affected", "setting": "[2]; 72 hours post introduction", "result": 100.0, "unit": "%"}, {"measurement": "Means Dead", "setting": "[2]; 72 hours post introduction", "result": "100% and 98%"}, {"measurement": "Means KD", "setting": "[2]; 72 hours post introduction", "result": 0.0, "unit": "%"}, {"measurement": "Time required for greater than 90% killing", "setting": "[3]", "result": 72, "unit": "h"}, {"measurement": "Means Affected", "setting": "[3]; 72 hours post introduction", "result": 100.0, "unit": "%"}, {"measurement": "Means Dead", "setting": "[3]; 72 hours post introduction", "result": 100, "unit": "%"}, {"measurement": "Means KD", "setting": "[3]; 72 hours post introduction", "result": 0.0, "unit": "%"}, {"measurement": "Repellency (conclusion in words)", "setting": "[4]; [6]", "result": "some potential repellency"}, {"measurement": "Raw data: number of fleas on Treated half of treated arena, per replicate", "setting": "[4]; 1 Hour post introduction", "result": "3 (2×) and 8 and 6 and 4"}, {"measurement": "Raw data: number of fleas on Untreated half of treated arena, per replicate", "setting": "[4]; 1 Hour post introduction", "result": "2 and 4 (2×) and 7 and 3"}, {"measurement": "Raw data: number of fleas on Treated half of treated arena, per replicate", "setting": "[4]; 4 Hours post introduction", "result": "2 and 1 and 3 (2×) and 4"}, {"measurement": "Raw data: number of fleas on Untreated half of treated arena, per replicate", "setting": "[4]; 4 Hours post introduction", "result": "9 and 7 and 6 (2×) and 4"}, {"measurement": "Raw data: number of fleas on Treated half of treated arena, per replicate", "setting": "[4]; 24 Hours post introduction", "result": "0 and 2 and 4 and 1 (2×)"}, {"measurement": "Raw data: number of fleas on Untreated half of treated arena, per replicate", "setting": "[4]; 24 Hours post introduction", "result": "8 (2×) and 6 (2×) and 9"}, {"measurement": "Calculated percent repellency (average ± SE)", "setting": "[4]; nootkatone (98%) 0.5% in ethanol on filter paper, half treated, half untreated arena", "result": "61.9 ± 15.0", "unit": "%"}, {"measurement": "Repellency (conclusion in words)", "setting": "[5]; [6]", "result": "highly repellent"}, {"measurement": "Raw data: number of bed bugs on Treated half of treated arena, per replicate", "setting": "[5]; [7]", "result": "0 (4×) and 1"}, {"measurement": "Raw data: number of bed bugs on Untreated half of treated arena, per replicate", "setting": "[5]; [7]", "result": "10 (4×) and 9"}, {"measurement": "Calculated percent repellency (average ± SE)", "setting": "[5]; nootkatone (98%) 0.5% in ethanol on filter paper, half treated, half untreated arena, 24 hours", "result": "93.9 ± 6.1", "unit": "%"}]}
